# Paper PMC8632988, “Inhibition of SYK and cSrc kinases can protect bone and cartilage in preclinical models of osteoarthritis and rheumatoid arthritis” (Scientific Reports, 2021)
# Key:
# Assay in all cases: Kinase selectivity profile assay
# Format in all cases: biochemical
# AKT1 = target: T1, AKT1 (Homo sapiens, UniProt P31749); settings: 500 nM; relative to DMSO; read-out: Residual enzymatic activity
# T1 construct: purchased Reaction Biology Corporation
# Experimental: (§1) The activity of MT-SYK-03 against cSrc kinase and selectivity profile towards other 341 kinases was determined at Reaction Biology Corporation (Malvern, PA, USA) using the standard kinase assay protocol. […]; unbound phosphate was removed by extensive washing of filters in phosphoric acid. Kinase activity data was expressed as the percent remaining kinase activity in test samples compared to vehicle (dimethyl sulfoxide) reactions based on the radioactivity of reaction products (see Table S2). Experiment was replicated twice.
# AKT2 = target: T2, AKT2 (Homo sapiens, UniProt P31751); settings: 500 nM; relative to DMSO; read-out: Residual enzymatic activity
# T2 construct: purchased Reaction Biology Corporation
# Experimental: as §1
# ASK1/MAP3K5 = target: T3, ASK1/MAP3K5 (Homo sapiens, UniProt Q99683); settings: 500 nM; relative to DMSO; read-out: Residual enzymatic activity
# T3 construct: purchased Reaction Biology Corporation
# Experimental: as §1
# BRK = target: T4, BRK (Homo sapiens, UniProt Q13882); settings: 500 nM, relative to DMSO
# T4 construct: purchased Reaction Biology Corporation
# Experimental: as §1
# BTK = target: T5, BTK (Homo sapiens, UniProt Q06187); settings: 500 nM; relative to DMSO; read-out: Residual enzymatic activity
# T5 construct: purchased Reaction Biology Corporation
# Experimental: as §1
# CAMK2b = target: T6, CAMK2b (Homo sapiens, UniProt Q13554); settings: 500 nM; relative to DMSO; read-out: Residual enzymatic activity
# T6 construct: purchased Reaction Biology Corporation
# Experimental: as §1
# CAMK2g = target: T7, CAMK2g (Homo sapiens, UniProt Q13555); settings: 500 nM; relative to DMSO; read-out: Residual enzymatic activity
# T7 construct: purchased Reaction Biology Corporation
# Experimental: as §1
# CDK2/cyclin A = target: T8, CDK2/cyclin A (Homo sapiens, UniProt P24941); settings: 500 nM; relative to DMSO; read-out: Residual enzymatic activity
# T8 construct: purchased Reaction Biology Corporation
# Experimental: as §1
# CDK4/cyclin D3 = target: T9, CDK4/cyclin D3 (Homo sapiens, UniProt P11802); settings: 500 nM; relative to DMSO; read-out: Residual enzymatic activity
# T9 construct: purchased Reaction Biology Corporation
# Experimental: as §1
# CK2a = target: T10, CK2a (Homo sapiens, UniProt P68400); settings: 500 nM; relative to DMSO; read-out: Residual enzymatic activity
# T10 construct: purchased Reaction Biology Corporation
# Experimental: as §1
# CLK4 = target: T11, CLK4 (Homo sapiens, UniProt Q9HAZ1); settings: 500 nM; relative to DMSO; read-out: Residual enzymatic activity
# T11 construct: purchased Reaction Biology Corporation
# Experimental: as §1
# DMPK2 = target: T12, DMPK2 (Homo sapiens, UniProt Q6DT37); settings: 500 nM; relative to DMSO; read-out: Residual enzymatic activity
# T12 construct: purchased Reaction Biology Corporation
# Experimental: as §1
# EPHB2 = target: T13, EPHB2 (Homo sapiens, UniProt P29323); settings: 500 nM; relative to DMSO
# T13 construct: purchased Reaction Biology Corporation
# Experimental: as §1
# ERK7/MAPK15 = target: T14, ERK7/MAPK15 (Homo sapiens, UniProt Q8TD08); settings: 500 nM; relative to DMSO; read-out: Residual enzymatic activity
# T14 construct: purchased Reaction Biology Corporation
# Experimental: as §1
# FER = target: T15, FER (Homo sapiens, UniProt P16591); settings: 500 nM; relative to DMSO; read-out: Residual enzymatic activity
# T15 construct: purchased Reaction Biology Corporation
# Experimental: as §1
# FGFR4 = target: T16, FGFR4 (Homo sapiens, UniProt P22455); settings: 500 nM; relative to DMSO
# T16 construct: purchased Reaction Biology Corporation
# Experimental: as §1
# FGR = target: T17, FGR (Homo sapiens, UniProt P09769)
# T17 construct: purchased Reaction Biology Corporation (assay service)
# Experimental: as §1
# GRK4 = target: T18, GRK4 (Homo sapiens, UniProt P32298); settings: 500 nM; relative to DMSO; read-out: Residual enzymatic activity
# T18 construct: purchased Reaction Biology Corporation
# Experimental: as §1
# GSK3b = target: T19, GSK3b (Homo sapiens, UniProt P49841); settings: 500 nM; relative to DMSO; read-out: Residual enzymatic activity
# T19 construct: purchased Reaction Biology Corporation
# Experimental: as §1
# HGK/MAP4K4 = target: T20, HGK/MAP4K4 (Homo sapiens, UniProt O95819); settings: 500 nM; relative to DMSO; read-out: Residual enzymatic activity
# T20 construct: purchased Reaction Biology Corporation
# Experimental: as §1
# JAK3 = target: T21, JAK3 (Homo sapiens, UniProt P52333); settings: 500 nM; relative to DMSO; read-out: Residual enzymatic activity
# T21 construct: purchased Reaction Biology Corporation
# Experimental: as §1
# LCK2/ICK = target: T22, LCK2/ICK (Homo sapiens, UniProt Q9UPZ9); settings: 500 nM; relative to DMSO; read-out: Residual enzymatic activity
# T22 construct: purchased Reaction Biology Corporation
# Experimental: as §1
# MEK3 = target: T23, MEK3 (Homo sapiens, UniProt P46734); settings: 500 nM; relative to DMSO; read-out: Residual enzymatic activity
# T23 construct: purchased Reaction Biology Corporation
# Experimental: as §1
# MSK2/RPS6KA4 = target: T24, MSK2/RPS6KA4 (Homo sapiens, UniProt O75676); settings: 500 nM; relative to DMSO; read-out: Residual enzymatic activity
# T24 construct: purchased Reaction Biology Corporation
# Experimental: as §1
# PASK = target: T25, PASK (Homo sapiens, UniProt Q96RG2); settings: 500 nM; relative to DMSO; read-out: Residual enzymatic activity
# T25 construct: purchased Reaction Biology Corporation
# Experimental: as §1
# PDGFRa = target: T26, PDGFRa (Homo sapiens, UniProt P16234)
# T26 construct: purchased Reaction Biology Corporation (Malvern, PA, USA)
# Experimental: as §1
# PIM1 = target: T27, PIM1 (Homo sapiens, UniProt P11309); settings: 500 nM; relative to DMSO; read-out: Residual enzymatic activity
# T27 construct: purchased Reaction Biology Corporation
# Experimental: as §1
# PKCb2 = target: T28, PKCb2 (Homo sapiens, UniProt P05771); settings: 500 nM; relative to DMSO; read-out: Residual enzymatic activity
# T28 construct: purchased Reaction Biology Corporation
# Experimental: as §1
# PRKX = target: T29, PRKX (Homo sapiens, UniProt P51817); settings: 500 nM; relative to DMSO; read-out: Residual enzymatic activity
# T29 construct: purchased Reaction Biology Corporation
# Experimental: as §1
# STK38L/NDR2 = target: T30, STK38L/NDR2 (Homo sapiens, UniProt Q9Y2H1); settings: 500 nM; relative to DMSO; read-out: Residual enzymatic activity
# T30 construct: purchased Reaction Biology Corporation
# Experimental: as §1
# TSSK2 = target: T31, TSSK2 (Homo sapiens, UniProt Q96PF2); settings: 500 nM; relative to DMSO; read-out: Residual enzymatic activity
# T31 construct: purchased Reaction Biology Corporation
# Experimental: as §1
# TTBK2 = target: T32, TTBK2 (Homo sapiens, UniProt Q6IQ55); settings: 500 nM; relative to DMSO; read-out: Residual enzymatic activity
# T32 construct: purchased Reaction Biology Corporation
# Experimental: as §1
# TYK1/LTK = target: T33, TYK1/LTK (Homo sapiens, UniProt P29376); settings: 500 nM; relative to DMSO; read-out: Residual enzymatic activity
# T33 construct: purchased Reaction Biology Corporation
# Experimental: as §1
# ULK1 = target: T34, ULK1 (Homo sapiens, UniProt O75385); settings: 500 nM; relative to DMSO; read-out: Residual enzymatic activity
# T34 construct: purchased Reaction Biology Corporation
# Experimental: as §1
# WNK2 = target: T35, WNK2 (Homo sapiens, UniProt Q9Y3S1); settings: 500 nM; relative to DMSO; read-out: Residual enzymatic activity
# T35 construct: purchased Reaction Biology Corporation
# Experimental: as §1
# YES/YES1 = target: T36, YES/YES1 (Homo sapiens, UniProt P07947)
# T36 construct: purchased Reaction Biology Corporation (Malvern, PA, USA)
# Experimental: as §1
# ZAK/MLTK = target: T37, ZAK/MLTK (Homo sapiens, UniProt Q9NYL2); settings: 500 nM; relative to DMSO; read-out: Residual enzymatic activity
# T37 construct: purchased Reaction Biology Corporation
# Experimental: as §1
# c-MET = target: T38, c-MET (Homo sapiens, UniProt P08581); settings: 500 nM; relative to DMSO; read-out: Residual enzymatic activity
# T38 construct: purchased Reaction Biology Corporation
# Experimental: as §1
# p70S6K/RPS6KB1 = target: T39, p70S6K/RPS6KB1 (Homo sapiens, UniProt P23443); settings: 500 nM; relative to DMSO; read-out: Residual enzymatic activity
# T39 construct: purchased Reaction Biology Corporation
# Experimental: as §1
# [1] = 500 nM, relative to DMSO, read-out: Residual enzymatic activity
# [2] = 10-dose mode, threefold serial dilution from 10 μM
# T36 sequence (P07947 whole entry): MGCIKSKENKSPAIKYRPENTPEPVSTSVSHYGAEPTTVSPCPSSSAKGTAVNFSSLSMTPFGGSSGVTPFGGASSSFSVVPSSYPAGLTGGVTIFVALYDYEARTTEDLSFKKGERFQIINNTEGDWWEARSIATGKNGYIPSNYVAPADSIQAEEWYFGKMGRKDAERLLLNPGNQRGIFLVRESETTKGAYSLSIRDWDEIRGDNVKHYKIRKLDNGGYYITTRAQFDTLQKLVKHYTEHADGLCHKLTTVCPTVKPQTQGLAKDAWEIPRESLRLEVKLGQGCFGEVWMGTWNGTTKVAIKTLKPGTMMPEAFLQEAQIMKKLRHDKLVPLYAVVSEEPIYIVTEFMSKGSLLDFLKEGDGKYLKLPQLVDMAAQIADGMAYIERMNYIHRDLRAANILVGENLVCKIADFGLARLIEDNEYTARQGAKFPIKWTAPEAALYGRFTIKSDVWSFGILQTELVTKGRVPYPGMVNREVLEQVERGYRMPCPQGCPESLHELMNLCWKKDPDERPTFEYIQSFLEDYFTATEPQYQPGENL
# T26 sequence (P16234 24-1089): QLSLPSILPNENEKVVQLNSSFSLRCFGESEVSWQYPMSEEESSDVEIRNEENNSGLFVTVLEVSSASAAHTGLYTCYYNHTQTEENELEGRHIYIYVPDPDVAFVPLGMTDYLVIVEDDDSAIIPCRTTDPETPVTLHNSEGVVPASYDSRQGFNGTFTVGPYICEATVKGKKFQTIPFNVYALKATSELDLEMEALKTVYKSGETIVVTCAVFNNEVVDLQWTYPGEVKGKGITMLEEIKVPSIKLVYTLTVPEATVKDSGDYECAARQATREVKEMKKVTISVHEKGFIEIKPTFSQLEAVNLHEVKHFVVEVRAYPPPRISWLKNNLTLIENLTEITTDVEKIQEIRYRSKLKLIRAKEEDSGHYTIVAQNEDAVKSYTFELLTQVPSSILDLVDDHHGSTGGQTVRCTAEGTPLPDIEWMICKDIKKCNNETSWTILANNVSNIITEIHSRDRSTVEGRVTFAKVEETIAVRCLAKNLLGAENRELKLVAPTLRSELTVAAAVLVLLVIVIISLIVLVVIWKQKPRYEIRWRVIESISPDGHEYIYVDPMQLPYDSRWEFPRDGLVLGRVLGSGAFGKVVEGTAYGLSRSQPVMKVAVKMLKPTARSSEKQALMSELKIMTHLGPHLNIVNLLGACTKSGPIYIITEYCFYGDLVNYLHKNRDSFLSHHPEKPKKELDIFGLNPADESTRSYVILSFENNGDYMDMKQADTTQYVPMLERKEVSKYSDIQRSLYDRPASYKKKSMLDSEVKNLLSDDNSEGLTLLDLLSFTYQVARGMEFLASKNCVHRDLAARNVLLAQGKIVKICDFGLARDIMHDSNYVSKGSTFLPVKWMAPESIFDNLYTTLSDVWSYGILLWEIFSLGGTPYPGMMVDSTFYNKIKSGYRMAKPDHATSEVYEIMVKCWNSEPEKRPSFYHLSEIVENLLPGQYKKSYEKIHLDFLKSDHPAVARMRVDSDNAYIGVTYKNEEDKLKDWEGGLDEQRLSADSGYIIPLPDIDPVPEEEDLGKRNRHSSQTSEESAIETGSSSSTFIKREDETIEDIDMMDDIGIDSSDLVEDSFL
# T4 sequence (Q13882 whole entry): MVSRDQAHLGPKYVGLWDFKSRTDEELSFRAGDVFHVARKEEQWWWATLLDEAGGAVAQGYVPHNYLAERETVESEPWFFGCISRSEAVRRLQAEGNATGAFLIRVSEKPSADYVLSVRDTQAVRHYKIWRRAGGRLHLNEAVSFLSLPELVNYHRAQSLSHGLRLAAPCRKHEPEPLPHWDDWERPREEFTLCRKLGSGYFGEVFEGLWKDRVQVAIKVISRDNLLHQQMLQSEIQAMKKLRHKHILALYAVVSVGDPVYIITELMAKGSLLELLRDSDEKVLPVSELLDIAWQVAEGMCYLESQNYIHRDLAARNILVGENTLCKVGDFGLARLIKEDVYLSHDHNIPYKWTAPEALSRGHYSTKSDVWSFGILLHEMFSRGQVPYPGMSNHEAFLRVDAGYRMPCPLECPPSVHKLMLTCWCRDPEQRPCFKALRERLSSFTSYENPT
# T17 sequence (P09769 whole entry): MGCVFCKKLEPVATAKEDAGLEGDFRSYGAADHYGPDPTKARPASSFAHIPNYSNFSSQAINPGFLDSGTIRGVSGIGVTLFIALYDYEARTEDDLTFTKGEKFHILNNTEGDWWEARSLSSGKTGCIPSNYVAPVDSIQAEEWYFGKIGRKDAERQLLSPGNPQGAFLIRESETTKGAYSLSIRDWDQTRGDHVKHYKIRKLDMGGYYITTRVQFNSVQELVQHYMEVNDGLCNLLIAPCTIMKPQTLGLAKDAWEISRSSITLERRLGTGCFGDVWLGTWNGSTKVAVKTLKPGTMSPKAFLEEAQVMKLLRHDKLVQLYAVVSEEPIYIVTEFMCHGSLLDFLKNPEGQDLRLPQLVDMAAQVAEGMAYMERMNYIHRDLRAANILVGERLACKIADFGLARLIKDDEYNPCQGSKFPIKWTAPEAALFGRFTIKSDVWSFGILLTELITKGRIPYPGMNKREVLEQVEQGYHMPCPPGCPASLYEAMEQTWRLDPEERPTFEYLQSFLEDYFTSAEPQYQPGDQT
# T28 sequence (P05771 1-673 isoform P05771-2): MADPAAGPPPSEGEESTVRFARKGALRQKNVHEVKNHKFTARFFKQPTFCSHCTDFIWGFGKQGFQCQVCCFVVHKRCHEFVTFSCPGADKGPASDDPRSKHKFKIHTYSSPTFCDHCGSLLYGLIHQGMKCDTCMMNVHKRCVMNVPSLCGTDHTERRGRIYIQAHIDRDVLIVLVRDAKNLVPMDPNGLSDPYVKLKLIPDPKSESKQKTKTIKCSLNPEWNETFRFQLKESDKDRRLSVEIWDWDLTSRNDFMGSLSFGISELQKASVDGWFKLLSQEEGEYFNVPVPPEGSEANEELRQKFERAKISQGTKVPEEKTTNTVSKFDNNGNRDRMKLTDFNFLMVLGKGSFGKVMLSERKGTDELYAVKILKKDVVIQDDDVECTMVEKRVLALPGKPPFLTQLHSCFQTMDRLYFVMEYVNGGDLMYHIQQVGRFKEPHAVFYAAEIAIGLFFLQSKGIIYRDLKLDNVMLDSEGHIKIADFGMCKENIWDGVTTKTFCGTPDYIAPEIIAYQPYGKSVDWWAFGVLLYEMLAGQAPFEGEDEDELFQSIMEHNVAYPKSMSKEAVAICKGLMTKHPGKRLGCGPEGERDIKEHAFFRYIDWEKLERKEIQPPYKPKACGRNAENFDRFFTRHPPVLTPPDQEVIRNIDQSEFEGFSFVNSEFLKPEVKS
# T30 sequence (Q9Y2H1 whole entry): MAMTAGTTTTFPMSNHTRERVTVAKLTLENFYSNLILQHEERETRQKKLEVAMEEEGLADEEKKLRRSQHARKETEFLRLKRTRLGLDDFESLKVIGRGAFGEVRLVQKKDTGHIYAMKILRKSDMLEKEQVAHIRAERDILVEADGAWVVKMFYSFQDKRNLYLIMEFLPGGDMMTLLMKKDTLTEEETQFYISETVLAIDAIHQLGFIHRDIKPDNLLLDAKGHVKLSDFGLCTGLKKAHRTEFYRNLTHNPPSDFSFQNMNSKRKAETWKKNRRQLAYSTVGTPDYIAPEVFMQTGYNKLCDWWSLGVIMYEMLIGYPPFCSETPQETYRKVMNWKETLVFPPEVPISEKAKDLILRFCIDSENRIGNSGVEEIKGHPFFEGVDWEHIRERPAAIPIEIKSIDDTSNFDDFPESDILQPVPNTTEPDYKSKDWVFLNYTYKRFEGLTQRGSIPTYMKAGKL
# T29 sequence (P51817 whole entry): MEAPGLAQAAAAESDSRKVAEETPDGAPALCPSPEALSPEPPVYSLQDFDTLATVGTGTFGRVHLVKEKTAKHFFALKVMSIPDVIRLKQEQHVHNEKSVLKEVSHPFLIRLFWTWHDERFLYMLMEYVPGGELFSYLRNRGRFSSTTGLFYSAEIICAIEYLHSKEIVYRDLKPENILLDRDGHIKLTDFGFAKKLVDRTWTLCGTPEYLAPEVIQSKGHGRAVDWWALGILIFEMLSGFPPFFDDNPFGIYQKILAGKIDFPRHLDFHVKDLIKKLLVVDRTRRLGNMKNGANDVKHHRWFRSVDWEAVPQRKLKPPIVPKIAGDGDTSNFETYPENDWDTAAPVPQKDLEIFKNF
# T31 sequence (Q96PF2 whole entry): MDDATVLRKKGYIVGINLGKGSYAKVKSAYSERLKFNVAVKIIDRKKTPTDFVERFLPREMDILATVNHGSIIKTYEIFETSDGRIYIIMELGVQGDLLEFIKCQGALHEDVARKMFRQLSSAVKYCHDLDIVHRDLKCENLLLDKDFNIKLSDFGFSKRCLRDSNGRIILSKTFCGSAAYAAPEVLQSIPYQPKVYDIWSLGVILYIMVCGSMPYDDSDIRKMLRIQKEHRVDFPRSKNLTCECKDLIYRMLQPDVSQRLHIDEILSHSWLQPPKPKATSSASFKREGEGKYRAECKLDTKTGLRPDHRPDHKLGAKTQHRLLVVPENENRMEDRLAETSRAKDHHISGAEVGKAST
# T7 sequence (Q13555 whole entry): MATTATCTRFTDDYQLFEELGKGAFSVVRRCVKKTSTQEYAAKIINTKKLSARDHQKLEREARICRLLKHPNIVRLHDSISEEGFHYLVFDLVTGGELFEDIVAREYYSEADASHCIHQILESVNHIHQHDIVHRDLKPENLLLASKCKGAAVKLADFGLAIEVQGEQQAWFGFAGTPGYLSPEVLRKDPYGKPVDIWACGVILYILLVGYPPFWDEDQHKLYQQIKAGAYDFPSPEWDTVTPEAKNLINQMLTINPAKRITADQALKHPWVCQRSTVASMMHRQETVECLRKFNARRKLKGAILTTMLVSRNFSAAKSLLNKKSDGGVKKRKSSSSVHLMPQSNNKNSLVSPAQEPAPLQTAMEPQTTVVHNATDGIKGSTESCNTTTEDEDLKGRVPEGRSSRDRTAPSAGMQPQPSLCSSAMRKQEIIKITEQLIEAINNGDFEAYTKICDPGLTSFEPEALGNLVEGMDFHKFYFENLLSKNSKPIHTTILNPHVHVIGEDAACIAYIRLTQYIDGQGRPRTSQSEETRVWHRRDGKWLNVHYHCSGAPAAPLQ
smiles,measurement,setting,value
COc1cc(Nc2ncnc(Nc3cc4c(cn3)NC(=O)C(C)(C)O4)n2)cc(OC)c1OC [MT-SYK-03],remaining activity at 0.5 µM,AKT1,101%
same,remaining activity at 0.5 µM,AKT2,106%
same,remaining activity at 0.5 µM,ASK1/MAP3K5,102%
same,Residual enzymatic activity,BRK,54.2%
same,remaining activity at 0.5 µM,BRK; read-out: Residual enzymatic activity,> 54%
same,remaining activity at 0.5 µM,BTK,51.3%
same,remaining activity at 0.5 µM,CAMK2b,97.7%
same,remaining activity at 0.5 µM,CAMK2g,100%
same,remaining activity at 0.5 µM,CDK2/cyclin A,83.1%
same,remaining activity at 0.5 µM,CDK4/cyclin D3,100%
same,remaining activity at 0.5 µM,CK2a,94.3%
same,remaining activity at 0.5 µM,CLK4,88.7%
same,remaining activity at 0.5 µM,DMPK2,96.4%
same,Residual enzymatic activity,EPHB2,77.7%
same,remaining activity at 0.5 µM,ERK7/MAPK15,100%
same,remaining activity at 0.5 µM,FER,78.8%
same,Residual enzymatic activity,FGFR4,95.7%
same,remaining activity at 0.5 µM,FGR; [1],22.6%
same,IC50,FGR; [2],9 nM
same,remaining activity at 0.5 µM,GRK4,99.7%
same,remaining activity at 0.5 µM,GSK3b,82.4%
same,remaining activity at 0.5 µM,HGK/MAP4K4,78.4%
same,remaining activity at 0.5 µM,JAK3,74.7%
same,remaining activity at 0.5 µM,LCK2/ICK,110%
same,remaining activity at 0.5 µM,MEK3,119%
same,remaining activity at 0.5 µM,MSK2/RPS6KA4,97.9%
same,remaining activity at 0.5 µM,PASK,102%
same,remaining activity at 0.5 µM,PDGFRa; [1],46.4%
same,IC50,PDGFRa; [2],35.9 nM
same,remaining activity at 0.5 µM,PIM1,101%
same,remaining activity at 0.5 µM,PKCb2,87.7%
same,remaining activity at 0.5 µM,PRKX,115%
same,remaining activity at 0.5 µM,STK38L/NDR2,89.6%
same,remaining activity at 0.5 µM,TSSK2,106%
same,remaining activity at 0.5 µM,TTBK2,109%
same,remaining activity at 0.5 µM,TYK1/LTK,92%
same,remaining activity at 0.5 µM,ULK1,62.2%
same,remaining activity at 0.5 µM,WNK2,84.6%
same,remaining activity at 0.5 µM,YES/YES1; [1],11.6%
same,IC50,YES/YES1; [2],3.5 nM
same,inhibition at 0.5 µM,YES/YES1; read-out: Inhibition at 500 nM,> 90%
same,remaining activity at 0.5 µM,ZAK/MLTK,92.9%
same,remaining activity at 0.5 µM,c-MET,108%
same,remaining activity at 0.5 µM,p70S6K/RPS6KB1,98.3%
